We go through two molecules from patent US20130336899A1, “ANTIMICROBIAL FORMULATIONS THAT AID IN WOUND HEALING” (Purdue Research Foundation, priority 2010, published 2013).

What all share (type): cell-based
Assay [1] concerns bacteria. The assay can be described thus: Measurement of 260/280 nm absorbing material (bacteriolysis, loss of intracellular proteins). The conditions noted are these: sucrose 1.17 OsM, thymol 2.66 mM.
Assay [2] concerns bacteria. The experiment in a line: Cell viability with vital stain (propidium iodide, PI). Conditions: thymol 2.66 mM, sucrose 1.17 OsM; after 1 hr. From the text:
FIG. 3A. Photomicrographs of cells that were: untreated; or treated with sucrose, or thymol or sucrose and thymol (S+T).

Assay [3] has as its system bacteria. The experiment in a line: Bactericidal log reduction after 10 and 60 min treatment. The conditions noted are these: for Log Red - 10 min: 10 min treatment; for Log Red - 60 min: 60 min treatment. How it is done:
Referring now to FIG. 4, the bactericidal effect of osmopermeation is fast acting and occurs in less than 10 minutes, as shown. Finally, osmopermeation is wide spectrum in nature and effective in treating both Gram (+) and Gram (−) bacterial strains.

Assay [4] relates to E. coli. The experiment in a line: Dose response, MIC and combination index, 24 hrs of treatment. Conditions: thymol emulsion. The source says: (§1) Responses represent 24 hrs of treatment. Six specific combinations (S+T) of sucrose and thymol are also plotted for each strain. The effect level (Fa) represents a value between 0 and 1.0 with 0 being no effect and 1.0 being all cells affected. (B) Normalized isobolograms defining the interaction between S and T. Numbered points correspond to the specific combinations enumerated in the table. Table denotes the minimum inhibitory concentrations (MICs) for each treatment as well as outcomes of the six S+T combinations. The nature of the two-treatment interaction is measured via the combination index (CI). The CI<1 is roughly defined as synergistic, ˜1 is additive and CI>1 is antagonistic. See Chou T C. “Theoretical basis, experimental design and computerized simulation of synergism and antagonism in drug combination studies”. Pharmacol. Rev. 2006; […]:621-81. Synergistic interactions were found in combinations with various hyperosmotic pressures and concentrations of the membrane permeabilizing agent.
(§2) Data collected with 4 strains of bacterial E. coli, E, faecalis, S. aureus and MRSA.

The subject of assay [5] is E. faecalis. Described as above. Conditions: thymol emulsion.
Excerpt: as §1, §2

The test system of assay [6] is MRSA. Described as above. Conditions: thymol emulsion.
Excerpt: as §1, §2

Assay [7] deals with S. aureus. Described as above. Conditions: thymol emulsion.
Excerpt: as §1, §2

Assay [8] deals with bacteria. The experiment in a line: Bactericidal action of hypertonic sucrose with or without membrane permeabilizing agent.

In the case of `Cc1ccc(C(C)C)c(O)c1` [Thymol (T), 2-isopropyl-5-methylphenol], the “280 nm (A.U.)” value in assay [1] (absorbing material released) amounted to 1.02 A.U. In assay [1] (absorbing material released), the “absorbance at 260 nm” value is “.99 A.U”. In addition, in assay [1] (ratio of absorbances), the 260/280 nm turned out to be 0.97. The “effect on cell viability (PI vital stain)” value in assay [2] is reported as “little effect on cell viability”. Also, the “Log Red - 10 min” value in assay [3] was around 6.4. The “Log Red - 60 min” value in assay [3] is around 6.7. Further, the MICT is on record as 2.60 mM in assay [4], 2.60 mM in assay [5], 1.65 mM in assay [6] and 1.65 mM in assay [7]. Further, in assay [8], the bactericidal effect entry is on record as “no significant bactericidal effect”.

With `OC[C@H]1O[C@@](CO)(O[C@H]2O[C@H](CO)[C@@H](O)[C@H](O)[C@H]2O)[C@@H](O)[C@@H]1O` [Sucrose (S), sucrose], the “effect on cell viability (PI vital stain)” value in assay [2] is “little effect on cell viability”. Moreover, in assay [3], the “Log Red - 10 min” value is given as below 0.5 and the “Log Red - 60 min” value was below 0.2. For the same molecule, the bactericidal effect result in assay [8] is “no bactericidal effect and actually permits cell proliferation”.
